Measurements published in patent US8324390B2, “Tetrazole-substituted anthranilamides as pesticides” (Bayer CropScience AG, priority 2008, dated 2012).
Where two headings read alike, the source gives them in different places.

Key:
[1] = test system: caterpillars of the armyworm (Spodoptera frugiperda); experiment: Spodoptera frugiperda test (SPODFR spray treatment); type: in vivo; settings: Spodoptera frugiperda, foliar, read-out: effect in % (caterpillars killed)
Text: (§1) Solvent: 78.0 parts by weight of acetone

[2] = test system: green peach aphid (Myzus persicae); experiment: Myzus test (MYZUPE spray treatment); type: in vivo; settings: Myzus persicae, foliar, read-out: effect in % (aphids killed)
Text: Solvent: 78 parts by weight of acetone
as §1

[3] = test system: larvae of the mustard beetle (Phaedon cochleariae); experiment: Phaedon test (PHAECO spray treatment); settings: Phaedon cochleariae, in Brassica rapa, foliar, read-out: effect in % (beetle larvae killed)
[4] = log P determination by HPLC (EEC Directive 79/831 Annex V.A8); type: physicochemical
Method: The measurements were carried out using an Agilent 1100 LC system with a 50*4.6 Zorbax Eclipse C18 1.8 μm column (oven temperature 55° C., flow rate 2.0 ml/min).
The following mobile phases were used:
Mobile phase A: acetonitrile+1000 μl of formic acid/l
Mobile phase B: Millipore water+900 μl of formic acid/l

[5] = test system: two-spotted spidermite (Tetranychus urticae); experiment: Tetranychus urticae test; OP-resistant (TETRUR spray application); type: in vivo; settings: read-out: mortality in % (spider mites killed)
Text: Solvent: 78.0 parts by weight acetone
• 1.5 parts by weight dimethylformamide Emulsifier 0.5 part by weight alkylaryl polyglycol ether
French beans (Phaseolus vulgaris) which are heavily infested with all stages of the two-spotted spidermite (Tetranychus urticae) are sprayed with a preparation of the active compound at the desired concentration.

adult Musca domestica = experiment: Musca domestica test (MUSCDO); type: in vivo; settings: treated sponge, read-out: kill in % (flies killed)
Method: (§2) Solvent: dimethyl sulphoxide
Vessels containing a sponge treated with the active compound preparation of the desired concentration are populated with adult Musca domestica.
(§3) After the desired period of time, the kill in % is determined.

Lucilia cuprina larvae = experiment: Lucilia cuprina test (LUCICU); type: in vivo; settings: read-out: kill in % (larvae killed)
Method: as §2
Vessels containing horse meat treated with the active compound preparation of the desired concentration are populated with Lucilia cuprina larvae.
as §3

Boophilus microplus = Boophilus microplus test (BOOPMI injection); type: in vivo; settings: Rhipicephalus microplus, read-out: effect in % (no fertile eggs laid)
Method: as §2
The solution of active compound is injected into the abdomen (Boophilus microplus), and the animals are transferred into dishes and kept in a climatised room. The activity is assessed by […] of fertile eggs.
100% means that none of the ticks has laid any fertile eggs.

[6] = application rate 100 g/ha, maize leaf discs
[7] = by HPLC according to EEC Directive 79/831 Annex V.A8, read-out: log P
[8] = 20 μg/animal, injection into the abdomen

| Structure (SMILES) | pest or weed control at 100 g/ha [1, 6] [%] | pest or weed control at 100 g/ha ([2]; application rate 100 g/ha, Chinese cabbage leaf discs) [%] | pest or weed control at 100 g/ha [3] [%] | chromatographic logP ([4]; reversed-phase HPLC, Zorbax Eclipse C18 column, determined by HPLC according to EEC Directive 79/831 Annex V.A8, read-out: log P) | mortality at 20 g/ha [5] [%] | pest or weed control at 100 ppm (adult Musca domestica) [%] | pest or weed control at 100 g/ha ([1]; in Zea mays) [%] | pest or weed control at 100 ppm (Lucilia cuprina larvae; in Equus caballus) [%] | pest or weed control at 100 g/ha ([2]; in Brassica rapa) [%] | chromatographic logP [4, 7] | pest or weed control at 0.02 mg (Boophilus microplus) [%] | chromatographic logP ([4]; log P) | pest or weed control at 0.02 mg (Boophilus microplus; [8]) [%] | pest or weed control at 100 ppm (Lucilia cuprina larvae; 100 ppm, treated horse meat) [%] | chromatographic logP ([4]; reversed-phase HPLC, Zorbax Eclipse C18 column, by HPLC according to EEC Directive 79/831 Annex V.A8, read-out: log P) |
| --- | --- | --- | --- | --- | --- | --- | --- | --- | --- | --- | --- | --- | --- | --- | --- |
| CNC(=O)c1cc(Cl)cc(C)c1NC(=O)c1cc(Cn2nnnc2C(F)(F)F)nn1-c1ccc(Cl)cc1Cl [Example 449] | ≥ 80 | ≥ 80 | ≥ 80 | 3.64 | ≥ 80 | – | – | – | – | – | – | – | – | – | – |
| CNC(=O)c1cc(C#N)cc(C)c1NC(=O)c1cc(Cn2nnc(C(F)(F)C(F)(F)C(F)(F)F)n2)nn1-c1ncccc1Cl [Example 5] | – | – | ≥ 80 | – | – | ≥ 80 | ≥ 80 | ≥ 80 | ≥ 80 | 3.43 | ≥ 80 | – | – | – | – |
| CNC(=O)c1cc(Cl)cc(C)c1NC(=O)c1cc(Cn2nnc(C(F)(F)F)n2)nn1-c1ncccc1Cl [Example 11] | – | – | ≥ 80 | – | – | ≥ 80 | ≥ 80 | ≥ 80 | ≥ 80 | – | – | 3.05 | ≥ 80 | – | – |
| Cc1cc(Cl)cc(C(=O)NC(C)C)c1NC(=O)c1cc(Cn2nnc(C(F)(C(F)(F)F)C(F)(F)F)n2)nn1-c1ncccc1Cl [Example 363] | – | – | ≥ 80 | – | ≥ 80 | – | ≥ 80 | – | – | – | – | 4.21 | – | – | – |
| CNC(=O)c1cc(Cl)cc(Cl)c1NC(=O)c1cc(Cn2nnc(C(F)(F)C(F)(F)F)n2)nn1-c1ncccc1Cl [Example 222] | – | – | ≥ 80 | – | – | – | ≥ 80 | ≥ 80 | ≥ 80 | – | – | 3.34 | ≥ 80 | – | – |
| CC(C)(C)NC(=O)c1cc(Cl)cc(Cl)c1NC(=O)c1cc(Cn2nnc(C(F)(F)C(F)(F)F)n2)nn1-c1ncccc1Cl [Example 223] | – | – | ≥ 80 | – | – | ≥ 80 | ≥ 80 | ≥ 80 | ≥ 80 | – | – | 4.16 | ≥ 80 | – | – |
| Cc1cc(C#N)cc(C(=O)NC(C)(C)C)c1NC(=O)c1cc(Cn2nnc(C(F)(F)C(F)(F)F)n2)nn1-c1ncccc1Cl [Example 136] | – | – | ≥ 80 | – | – | ≥ 80 | ≥ 80 | – | ≥ 80 | – | – | 3.86 | – | – | – |
| Cc1cc(C#N)cc(C(=O)NC(C)C)c1NC(=O)c1cc(Cn2nnc(C(F)(F)F)n2)nn1-c1ncccc1Cl [Example 10] | – | – | ≥ 80 | – | – | ≥ 80 | ≥ 80 | ≥ 80 | – | – | – | 3.07 | ≥ 80 | – | – |
| Cc1cc(Cl)cc(C(=O)NC(C)C)c1NC(=O)c1cc(Cn2nnnc2C(F)(F)F)nn1-c1ncccc1Cl [Example 162] | – | – | ≥ 80 | – | – | ≥ 80 | ≥ 80 | – | ≥ 80 | – | – | 3.12 | – | – | – |
| Cc1cc(F)cc(C(=O)NC2CC2)c1NC(=O)c1cc(Cn2nnc(C(F)(F)C(F)(F)F)n2)nn1-c1ncccc1Cl [Example 220] | – | – | ≥ 80 | – | – | – | ≥ 80 | ≥ 80 | ≥ 80 | – | – | 3.3 | ≥ 80 | – | – |
| Cc1cc(F)cc(C(=O)NC(C)C)c1NC(=O)c1cc(Cn2nnc(C(F)F)n2)nn1-c1ncccc1Cl [Example 295] | – | – | ≥ 80 | – | – | – | ≥ 80 | ≥ 80 | ≥ 80 | – | – | 2.64 | ≥ 80 | – | – |
| Cc1cc(Br)cc(C(=O)NC(C)C2CC2)c1NC(=O)c1cc(Cn2nnc(C(F)(F)C(F)(F)F)n2)nn1-c1ncccc1Cl (stereo not shown) [Example 144] | – | – | ≥ 80 | – | – | ≥ 80 | ≥ 80 | – | – | – | – | 4.29 | – | – | – |
| Cc1cc(Br)cc(C(=O)NC2CC2)c1NC(=O)c1cc(Cn2nnc(C(F)(F)F)n2)nn1-c1ncccc1C(F)(F)F [Example 229] | ≥ 80 | – | ≥ 80 | – | – | – | – | – | – | – | – | – | ≥ 80 | ≥ 80 | 3.52 |
| CNC(=O)c1cc(Cl)cc(C)c1NC(=O)c1cc(Cn2nnc(C(F)(F)C(F)(F)C(F)(F)F)n2)nn1-c1ncccc1Cl [Example 2] | – | – | ≥ 80 | – | – | ≥ 80 | ≥ 80 | ≥ 80 | ≥ 80 | 3.75 | ≥ 80 | – | – | – | – |
| Cc1cc(C#N)cc(C(N)=O)c1NC(=O)c1cc(Cn2nnc(C(F)(F)C(F)(F)F)n2)nn1-c1ncccc1Cl [Example 137] | – | – | ≥ 80 | – | – | ≥ 80 | ≥ 80 | – | – | – | – | 2.83 | – | – | – |
| Cc1cc(C#N)cc(C(=O)NC(C)C)c1NC(=O)c1cc(Cn2nnc(C(F)(F)C(F)(F)C(F)(F)F)n2)nn1-c1ncccc1Cl [Example 6] | – | – | ≥ 80 | – | – | – | ≥ 80 | ≥ 80 | – | 3.82 | ≥ 80 | – | – | – | – |
| Cc1cc(I)cc(C(=O)NC(C)(C)C)c1NC(=O)c1cc(Cn2nnc(C(F)(F)C(F)(F)F)n2)nn1-c1ncccc1Cl [Example 218] | – | – | ≥ 80 | – | – | ≥ 80 | ≥ 80 | ≥ 80 | – | – | – | 4.5 | ≥ 80 | – | – |
| Cc1cc(Cl)cc(C(N)=O)c1NC(=O)c1cc(Cn2nnc(C(F)(F)C(F)(F)C(F)(F)F)n2)nn1-c1ncccc1Cl [Example 3] | – | – | ≥ 80 | – | – | ≥ 80 | ≥ 80 | ≥ 80 | – | 3.49 | ≥ 80 | – | – | – | – |
| Cc1cc(C#N)cc(C(=O)NC2CC2)c1NC(=O)c1cc(Cn2nnc(C(F)(F)F)n2)nn1-c1ncccc1Cl [Example 13] | – | – | ≥ 80 | – | – | ≥ 80 | ≥ 80 | ≥ 80 | ≥ 80 | – | – | 2.84 | ≥ 80 | – | – |
| Cc1cc(C#N)cc(C(N)=O)c1NC(=O)c1cc(Cn2nnc(C(F)(F)C(F)(F)C(F)(F)F)n2)nn1-c1ncccc1Cl [Example 7] | – | – | ≥ 80 | – | – | ≥ 80 | ≥ 80 | ≥ 80 | ≥ 80 | 3.17 | ≥ 80 | – | – | – | – |
| CNC(=O)c1cc(C)cc(C)c1NC(=O)c1cc(Cn2nnnc2C(F)(F)F)nn1-c1ncccc1Cl [Example 178] | – | – | ≥ 80 | – | – | ≥ 80 | ≥ 80 | – | ≥ 80 | – | – | 2.48 | – | – | – |
| Cc1cc(Cl)cc(C(=O)NCC#N)c1NC(=O)c1cc(Cn2nnc(C(F)(F)C(F)(F)F)n2)nn1-c1ncccc1Cl [Example 133] | – | – | ≥ 80 | – | – | ≥ 80 | ≥ 80 | – | – | – | – | 3.32 | – | – | – |
